According to patent US11229618B2 (Amarin Pharmaceuticals Ireland Limited, priority 2012, dated 2022):
Entries after “also recorded” stand apart in the source; their conditions may differ.

What was measured:
[1] = MARINE: plasma fatty acid concentrations, ratios and class proportions (GC/FID); format: in vivo, human; conditions: for Mono-unsaturated, proportion to total fatty acids, Mean placebo-adjusted percent change from baseline / Total omega-6, proportion to total fatty acids, Mean placebo-adjusted percent change from baseline / Saturated, proportion to total fatty acids, Mean placebo-adjusted percent change from baseline / Total omega-3, proportion to total fatty acids, Mean placebo-adjusted percent change from baseline: Plasma; for Palmitic Mean placebo-adjusted percent change from baseline / Oleic Mean placebo-adjusted percent change from baseline / Stearic Mean placebo-adjusted percent change from baseline / Linoleic Mean placebo-adjusted percent change from baseline / DHA Mean placebo-adjusted percent change from baseline / AA Mean placebo-adjusted percent change from baseline / DPAn-3 Mean placebo-adjusted percent change from baseline: plasma, week 12
Protocol: A multi-center, placebo-controlled randomized, double-blind, 12-week study with an open-label extension is performed to evaluate the efficacy and safety of AMR101 in patients with fasting triglyceride levels≥500 mg/dL. The primary objective of the study is to determine the efficacy of AMR101 2 g daily and 4 g daily, compared to placebo, in lowering fasting TG levels in patients with fasting TG levels≥500 mg/dL and ≤1500 mg/dL (≥5.65 mmol/L and ≤16.94 mmol/L).
Eligible patients will be randomly assigned at Visit 4 (Week 0) to receive orally AMR101 2 g daily, AMR101 4 g daily, or placebo for the 12-week double-blind treatment period. AMR101 is provided in 1 g liquid-filled, oblong, gelatin capsules. The matching placebo capsule is filled with light liquid paraffin and contains 0 g of AMR101. During the double-blind treatment period, patients will take 2 capsules (AMR101 or matching placebo) in the morning and 2 in the evening for a total of 4 capsules per day. Patients in the AMR101 2 g/day treatment group will receive 1 AMR101 1 g capsule and 1 matching placebo capsule in the morning and in the evening. Patients in the AMR101 4 g/day treatment group will receive 2 AMR101 1 g capsules in the morning and evening.
Lipids were extracted from plasma and RBC suspensions and converted into fatty acid methyl esters for analysis using a standard validated gas chromatography/flame ionization detection method. Fatty acid parameters were compared between EPA treatment groups and placebo using an ANCOVA model with treatment, gender, type of statin therapy, and presence of diabetes as factors, and the baseline parameter value as a covariate. LSMs, SEs, and 2-tailed 95% confidence intervals for each treatment group and for each comparison were determined.
The monounsaturated fatty acid group included myristoleic, palmitoleic, cis-vaccenic, oleic, gondoic/gadoleic, erucic and nervonic acids. The saturated fatty acid group included myristic, palmitic, stearic, arachidic, behenic and lignoceric acids. The “total omega-3” group included α-linolenic, stearidonic, eicosatrienoic, ω-3 arachidonic, eicosapentaenoic, ω-3 docosapentaenoic and docosahecaenoic acids. The “total omega-6” group included linoleic, γ-linolenic, eicosadienoic, dihomo-γ-linolenic, ω-6 arachidonic, adrenic, and ω-6 docosapentaenoic acids. The “total fatty acid” group represented the sum of the monounsaturated, saturated, total omega-3 and total omega-6 groups.

[2] = Phase 1 multidose pharmacokinetic study: total EPA in plasma (LC-MS/MS); format: in vivo, human; conditions: for Total EPA in plasma, CL/F: day 28; for mean plasma CL/F of ethyl eicosapentaenoate: human
Protocol: A study to characterize the pharmacokinetics of ethyl eicosapentaenoate in plasma and red blood cells after multiple-dose administration of IPE at 2 g per day and 4 g per day was performed in healthy adult male and female humans.
The study was a phase 1, open-label, randomized, multidose study in healthy, nonsmoking men and women aged>18 and ≤55 years with a body mass index (BMI)>18 and ≤30 kg/m′. Exclusion criteria included use within 6 weeks prior to randomization through study end of any lipid-altering medications or supplements, including statins, niacin at levels of greater than 200 mg/day, fibrates, ezetimibe, bile acid sequestrants, omega-3 fatty acid medications, and supplements or foods enriched with omega-3 fatty acids (no more than 2 servings of fish per week were permitted).
Following a 14-day screening period, subjects entered a 28-day treatment period and were randomized to one of four IPE dose regimen treatment groups as shown in FIG. 1. Group 1 received IPE 2 g daily (1000-mg capsules; twice-daily [BID] regimen); Group 2 received IPE 4 g daily (1000-mg capsules; BID regimen); Group 3 received IPE 2 g daily (1000-mg capsules; once-daily [QD] regimen); and Group 4 received IPE 2 g daily (500-mg capsules; BID regimen). Treatment was administered orally, with or following a meal in the morning and evening for BID regimens, or in the morning only for the QD regimen. Subjects then entered an 18-day post-treatment pharmacokinetic sampling period.
Fasting EPA concentrations were measured with a validated liquid chromatography with tandem mass spectrometry (LC-MS/MS) method in plasma and RBCs prior to the morning dose (days 1, 14, 26, 28) and at serial time points (1, 3, 5, 6, 8, 10, 12, 24, 48, 72, 120, 192, 312, and 432 hours) after the morning dose on day 28. After the last dose on day 28, EPA concentrations were followed for 18 days to estimate the expected long half-life of EPA. Total plasma EPA included all EPA forms (unesterified EPA and that incorporated in phospholipids, triacylglycerols, and cholesteryl esters). In RBCs, EPA was measured in the cell membrane, where EPA is mainly incorporated in phospholipids.
For total EPA in plasma and RBCs, lipids were isolated by acid/methanol/chloroform extraction followed by centrifugation and purified by isohexane and solid-phase extraction after confirmed complete lipid hydrolysis and transmethylation (acid/methanol, 50° C. overnight). For unesterified EPA in plasma, 25 μL of an inhibitor solution (0.5 g sodium fluoride, 1.0 g L-ascorbic acid, and 0.25 g 5-methylisoxazole-3-carboxylic acid per 10 mL water) was included per 1 mL plasma sample to prevent degradation and lipids were isolated by centrifugation after methanol/chloroform extraction (without hydrolysis or methylation) and further purified by protein precipitation and solid-phase extraction. Quantitation utilized linolenic acid as an internal standard and EPA as the standard for the calibration curve; for total plasma EPA, RBC EPA, and unesterified EPA, the lower limits of quantitation were 10 μg/mL, 5 μg/mL, and 50 ng/mL, respectively. EPA concentrations were measured at Charles River Laboratories Ltd (Elphinstone Research Center, Tranent, Edinburgh, Scotland, UK).
Unless otherwise specified, all reported parameters are based on baseline-subtracted concentrations (baseline is due to EPA derived from dietary sources).

[3] = IPE 2 g/day vs placebo, P <0.0001
[4] = IPE 4 g/day vs placebo, P <0.0001

## CC/C=C\C/C=C\C/C=C\C/C=C\C/C=C\CCCC(=O)OCC [IPE, all-cis eicosa-5,8,11,14,17-pentaenoic acid ethyl ester]
[1]; IPE 2 g/day vs placebo, P 0.0009
  Mono-unsaturated, proportion to total fatty acids, Mean placebo-adjusted percent change from baseline: −7.4%
[1]; IPE 2 g/day vs placebo, P 0.3044
  Total omega-6, proportion to total fatty acids, Mean placebo-adjusted percent change from baseline: 3.2%
[1]; IPE 2 g/day vs placebo, P 0.8076
  Saturated, proportion to total fatty acids, Mean placebo-adjusted percent change from baseline: −0.4%
[1]; [3]
  Total omega-3, proportion to total fatty acids, Mean placebo-adjusted percent change from baseline: 68.4%
  AA Mean placebo-adjusted percent change from baseline: −16.4%
  DPAn-3 Mean placebo-adjusted percent change from baseline: 107.2%
[1]; IPE 4 g/day vs placebo, P 0.0008
  Mono-unsaturated, proportion to total fatty acids, Mean placebo-adjusted percent change from baseline: −7.7%
[1]; IPE 4 g/day vs placebo, P 0.1049
  Saturated, proportion to total fatty acids, Mean placebo-adjusted percent change from baseline: −2.8%
[1]; IPE 4 g/day vs placebo, P 0.8846
  Total omega-6, proportion to total fatty acids, Mean placebo-adjusted percent change from baseline: 0.5%
[1]; [4]
  Total omega-3, proportion to total fatty acids, Mean placebo-adjusted percent change from baseline: 132.7%
  AA Mean placebo-adjusted percent change from baseline: −26.8%
  DPAn-3 Mean placebo-adjusted percent change from baseline: 150.8%
  Palmitic Mean placebo-adjusted percent change from baseline: −34.4%
[1]; IPE 2 g/day vs placebo, P 0.0011
  Palmitic Mean placebo-adjusted percent change from baseline: −23.9%
[1]; IPE 2 g/day vs placebo, P 0.0023
  Oleic Mean placebo-adjusted percent change from baseline: −23.8%
[1]; IPE 2 g/day vs placebo, P 0.0040
  Stearic Mean placebo-adjusted percent change from baseline: −20.7%
[1]; IPE 2 g/day vs placebo, P 0.0136
  Linoleic Mean placebo-adjusted percent change from baseline: −15.2%
[1]; IPE 2 g/day vs placebo, P 0.7217
  DHA Mean placebo-adjusted percent change from baseline: −2.3%
[1]; IPE 4 g/day vs placebo, P 0.0001
  Oleic Mean placebo-adjusted percent change from baseline: −31.9%
[1]; IPE 4 g/day vs placebo, P 0.0002
  Stearic Mean placebo-adjusted percent change from baseline: −28.4%
[1]; IPE 4 g/day vs placebo, P 0.0003
  Linoleic Mean placebo-adjusted percent change from baseline: −23.7%
[1]; IPE 4 g/day vs placebo, P 0.7115
  DHA Mean placebo-adjusted percent change from baseline: 2.4%
[2]; 2 g/day vs 4 g/day (Group 1 vs. Group 2), total plasma, total RBCs, unesterified EPA
  dose linearity of EPA exposure (dose-normalized AUC and maximum concentration): Dose linearity was observed; also recorded: dose-proportional
[2]; 2 g/day, Group 1 vs. Group 3
  comparison of exposure between QD and BID regimens: similarity between QD and BID regimens
[2]; 2 g/day, Group 1 vs. Group 4
  comparison of exposure between 1×1000-mg and 2×500-mg formulations: similarity; also recorded: comparable exposures at comparable doses
[2]; Group 1: IPE 2 g/d 1 × 1000 mg BID
  Total EPA in plasma, CL/F: 776.4 mL/h
[2]; Group 2: IPE 4 g/d 2 × 1000 mg BID
  Total EPA in plasma, CL/F: 683.7 mL/h
[2]; Group 3: IPE 2 g/d 2 × 1000 mg QD
  Total EPA in plasma, CL/F: 867.7 mL/h
[2]; Group 4: IPE 2 g/d 2 × 500 mg BID
  Total EPA in plasma, CL/F: 684.5 mL/h
[2]; about 1 g orally twice per day
  mean plasma CL/F of ethyl eicosapentaenoate: about 776.4+/−256.9 mL/h
[2]; about 2 g orally twice per day
  mean plasma CL/F of ethyl eicosapentaenoate: about 683.7+/−280.6 mL/h
[2]; graphical examination
  effect of age on AUC0-24hr and maximum concentration of total and unesterified plasma EPA: no effect of age was observed
[2]; in vivo
  effect of gender on EPA exposure parameters: no consistent gender effect was observed
